According to patent US20050054620A1, “Paricalcitol as a chemotherapeutic agent” (priority 2003, published 2005):
“Also recorded” adds a separate entry of the source.

Tests used:
HL-60 cells [1] = test: Western blot of cell lysates; assay type: cell-based, human; conditions: for phosphorylation of Rb / expression of Bax / expression of C/EBPβ: 3 days; for expression of Bax / expression of C/EBPβ / expression of phosphorylated-ERK: paricalcitol 0.01 μM, arsenic trioxide 0.8 μM; for expression of phosphorylated-ERK: peak after 1 day
Procedure: (§1) Western blot analysis was used to determine the levels of proteins involved in cell cycle and differentiation. For western blot analysis, cells were washed twice in PBS, suspended in lysis buffer [50 mM Tris (pH 8.0), 150 mM NaCl, 0.1% SDS, 0.5% sodium deoxycholate, 1% NP40, […] phenylmethylsulfonyl fluoride, […] aprotinin, […] pepstatin, and […] leupetin] and placed on ice for 30 min. After centrifugation at 15,000×g for 15 min at 4° C., the suspension was collected. Protein concentrations were quantitated using the Bio-Rad assay (Bio-Rad Labolatories, Hercules, Calif.). Whole lysates ([…]) were resolved by 4-15% SDS polyacrylamide gel, transferred to an immobilon polyvinylidene difuride membrane (Amersham Corp., Arlington Heights, Ill.), and probed sequentially with a number of antibodies (p21WAF1, p27KIP1, PTEN, and GAPDH, Santa Cruz Biotechnology Inc., Santa Cruz, Calif.). The blots were developed using the Supersignal West Pico Chemiluminescent Substrate Kit (Pierce, Rockford, Ill.).
(§2) Western blot analysis was performed as follows: cells were washed twice in PBS, suspended in lysis buffer (50 mM Tris at pH 8.0, 150 mM NaCl, 0.1% SDS, 0.5% sodium deoxycholate, 1% Nonidet P-40, phenylmethylsulfonyl fluoride at 100 μg/mL, aprotinin at 2 μg/mL, pepstatin at 1 μg/mL, and leupetin at 10 μg/mL), and placed on ice for 30 minutes. After centrifugation at 15,000×g for 15 minutes at 4° C., the suspension was collected. Protein concentrations were quantitated by using the Bio-Rad protein Assay Dye Reagent Concentrate (Bio-Rad Laboratories, Hercules, Calif.) according to the manufacture's recommendation. Whole cell lysates (40 μg) were resolved by SDS-polyacrylamide gel electrophoresis in a 4%-15% gel, transferred to a polyvinylidene difuride membrane (Immobilon, Amersham Corp., Arlington Heights, Ill.), and probed sequentially with antibodies against the following proteins: VDR, RXR, CEBPβ, Rb, Bcl-2, Bcl-XL, Bax, p-ERK, RARA, GAPDH (Santa Cruz Biotechnology Inc., Santa Cruz, CA). The blots were developed using the Supersignal West Pico Chemiluminescent Substrate Kit (Pierce, Rockford, Ill.).

NB-4 cells = test: Western blot of cell lysates; assay type: cell-based, human
Procedure: as §1, §2

HL-60 cells [2] = test: CD14 expression by flow cytometry; assay type: cell-based, human; conditions: for cell surface CD14 expression: paricalcitol 0.01 μM, arsenic trioxide 0.8 μM, 3 days
Procedure: In order to measure cell surface CD14 antigen on HL-60 cells, promyelocytic leukemia cell line, HL-60, was treated with either 1,25(OH)2D3 or paricalcitol (10^−7M) for 4 days and examined for CD14 expression by flow cytometry using CD14 antibody (DAKO, Carpinteria, Calif.), as described previously (Hisatake et al., supra, 2001). Murine IgG1 antibody (DAKO) was used as a control.
Measurement of cell surface CD14 antigen on HL-60 cells by flow cytometry using CD14 antibody (DAKO, Carpinteria, Calif.), was determined as described previously (Hisatake et al. Blood 97:2427-2433 (2001)). Murine IgG1 antibody (DAKO) was used as a control.

NCI-H929 cells = test: Cell cycle analysis by flow cytometry; assay type: cell-based, human; conditions: for G0/G1 arrest / accumulation / sub-G1 population: 0.01 μM each, 3 days
Procedure: For cell cycle analysis, cells were exposed to 10^−7M 1,25(OH)2D3, 10^−7M paricalcitol or vehicle control for either 3 or 4 days. Total cells, both in suspension and adherent, were collected, washed, suspended in cold PBS. Then cells were fixed in 75% chilled methanol and stained with propidium iodine. Cell cycle status was analyzed on a Becton Dickinson Flow Cytometer.
HCI-H929 cells were cultured with either paricalcitol (10^−7M) or 1,25(OH)2D3 (10^−7M) for 72 hrs, harvested and stained with propidium iodine (PI). Control cells were treated with vehicle alone.

[3] = tested on: NB-4 myeloid leukemia cells; test: MTT assay; assay type: cell-based, human; conditions: 4 days exposure
24-hydroxylase = target: T1, 24-hydroxylase (Homo sapiens, UniProt Q07973); test: 24-hydroxylase activity by level of 24.25(OH)2D3 in HL-60 cells; assay type: cell-based; parameters: endogenous in cells; host or cells: HL-60; conditions: paricalcitol 0.01 μM, arsenic trioxide 0.8 μM, 3 days
T1 sequence (Q07973 36-514): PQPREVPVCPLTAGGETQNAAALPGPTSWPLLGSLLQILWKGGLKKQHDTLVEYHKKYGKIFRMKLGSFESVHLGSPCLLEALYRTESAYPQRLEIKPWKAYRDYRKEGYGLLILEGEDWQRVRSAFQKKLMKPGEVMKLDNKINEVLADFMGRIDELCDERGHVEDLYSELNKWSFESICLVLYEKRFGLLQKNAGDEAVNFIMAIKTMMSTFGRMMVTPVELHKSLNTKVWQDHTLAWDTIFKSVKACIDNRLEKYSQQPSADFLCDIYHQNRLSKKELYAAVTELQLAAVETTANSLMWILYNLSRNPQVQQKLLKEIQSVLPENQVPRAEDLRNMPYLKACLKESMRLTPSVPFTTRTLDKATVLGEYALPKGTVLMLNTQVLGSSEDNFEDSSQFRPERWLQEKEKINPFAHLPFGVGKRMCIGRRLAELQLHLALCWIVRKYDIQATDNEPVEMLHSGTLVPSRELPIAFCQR
Procedure: HL-60 (A) and NB-4 (B) myeloid leukemia cell lines were treated with paricalcitol (0.01 μM for HL-60, 0.1 μM for NB-4) and/or arsenic trioxide (0.8 μM for HL-60, 0.6 μM for NB-4) for 3 days. Control cells were treated with vehicle alone. The levels of 24.25(OH)2D3 were measured by HPLC analysis.
The possibility that the arsenic trioxide inactivates the mitchondrial enzyme, 24-hydroxylase leading to an activation of the response of the cells to vitamin D was tested. The activity of 24-hydroxylase was examined by measuring its metabolite, 24.25(OH)2D3 by TLC analysis in leukemia cells. HL-60 and NB-4 myeloid leukemia cell lines were treated with paricalcitol (0.01 μM for HL-60, 0.1 μM for NB-4) and/or arsenic trioxide (0.8 μM for HL-60, 0.6 μM for NB-4) for 3 days. Control cells were treated with vehicle alone. Then the levels of 24.25(OH)2D3 were measured by TLC analysis. Paricalcitol alone increased the levels of 24.25(OH)2D3 in HL-60 and NB-4, while arsenic trioxide alone decreased its level compared to control cells (FIG. 11). […] The decrease of the levels of 24-hydroxylase by arsenic trioxide may explain the enhanced activity of paricalcitol by arsenic trioxide in leukemia cells.

With arsenic trioxide the “expression of VDR and RXR” value (HL-60 cells [1]) was “not substantially changed”, the “phosphorylation of Rb” value (HL-60 cells [1]) was “increased” and the “expression of Bax” value (HL-60 cells [1]) was “not changed”. The “expression of C/EBPβ” value (HL-60 cells [1]) was “also increased its expression level”, the “expression of phosphorylated-ERK” value (HL-60 cells [1]) was “also increased” and the “protein level of PML-RAR” value (NB-4 cells; arsenic trioxide 0.6 μM, paricalcitol 0.1 μM, 3 days) was “decreased the protein level of PML-RAR”. The “cell surface CD14 expression” value (HL-60 cells [2]) was “did not”, the “G0/G1 arrest / accumulation” value (NCI-H929 cells) was “induced G0/G1 arrest” and the sub-G1 population (NCI-H929 cells) was “increased”. For the same molecule, the “antiproliferative effect by MTT assay” value [3] was “suppressed the cell growth in a dose-dependent manner” and the “levels of 24.25(OH)2D3” value (24-hydroxylase) was “decreased”.
For `C[C@H](/C=C/[C@H](C)C(C)(C)O)[C@H]1CC[C@H]2/C(=C/C=C3C[C@@H](O)C[C@H](O)C3)CCC[C@]12C` [paricalcitol, 19-nor-1,25, (OH)2D3], the “expression of VDR and RXR” value (HL-60 cells [1]) was “not substantially changed”, the “induction of PTEN” value (HL-60 cells [1]; 10^−7M, 72 hr) was 7 fold and the “induction of p21WAF1” value (HL-60 cells [1]; 10^−7M, 72 hr) was “approximately 7 fold”. The “induction of p27KIP1” value (HL-60 cells [1]; 10^−7M, 72 hr) was “about 6 fold”, the “phosphorylation of Rb” value (HL-60 cells [1]) was “increased” and the “expression of Bax” value (HL-60 cells [1]) was “not changed”. For the same molecule, the “expression of C/EBPβ” value (HL-60 cells [1]) was “increased”, the “expression of phosphorylated-ERK” value (HL-60 cells [1]) was “increased” and the “induction of PTEN” value (NB-4 cells; 10^−7M, 72 hr) was 25 fold. For the same molecule, the “cells induced to express CD14” value (HL-60 cells [2]; 10^−7M, 96 hrs) was 65%, the “cell surface CD14 expression” value (HL-60 cells [2]) was “increased cell surface CD14” and the “G0/G1 arrest / accumulation” value (NCI-H929 cells) was “induced G0/G1 arrest”. For the same molecule, the sub-G1 population (NCI-H929 cells) was “increased”, the “increase of accumulation in G1/G0 phase” value (NCI-H929 cells; 10^−7M, 72 hrs) was 7% and the “increase in apoptotic sub-G1 population” value (NCI-H929 cells; 10^−7M, 72 hrs, diluant control 4% sub-G1) was 21%. The “antiproliferative effect by MTT assay” value [3] was “suppressed the cell growth in a dose-dependent manner; also recorded: sensitive” and the “levels of 24.25(OH)2D3” value (24-hydroxylase) was “increased”.
